What all share (format): functional
A short description of assay [1]: Antioxidant activity assessed as rate constant for photolysis-induced methyl radical scavenging activity using DMPO spin trap by ESR spectroscopic method.
Assay [2] can be described thus: Antioxidant activity assessed as Trolox equivalents of photolysis-induced alkoxyl scavenging activity using DMPO spin trap by ESR spectroscopic method.
Assay [3] can be described thus: Antioxidant activity assessed as relative scavenging rate constant for photolysis-induced methyl radical scavenging activity by measuring Kaox/Kst ratio using DMPO spin trap by ESR spectroscopic method.
A short description of assay [4]: Antioxidant activity assessed as relative scavenging rate constant for photolysis-induced hydroxyl radical scavenging activity by measuring Kaox/Kst ratio using DMPO spin trap by ESR spectroscopic method.
Assay [5] in a line: Antioxidant activity assessed as relative scavenging rate constant for photolysis-induced alkoxyl scavenging activity by measuring Kaox/Kst ratio using DMPO spin trap by ESR spectroscopic method.
Assay [6] is described as follows: Antioxidant activity assessed as Trolox equivalents of photolysis-induced hydroxyl radical scavenging activity using DMPO spin trap by ESR spectroscopic method.
Assay [7] is described as follows: Antioxidant activity assessed as Trolox equivalents of photolysis-induced singlet oxygen scavenging activity using 4-HO-TEMP spin trap by ESR spectroscopic method.
The nature of assay [8]: Antioxidant activity assessed as relative scavenging rate constant for photolysis-induced peroxyl scavenging activity by measuring Kaox/Kst ratio using CYPMPO spin trap by ESR spectroscopic method.
Assay [9] in a line: Antioxidant activity assessed as relative scavenging rate constant for photolysis-induced super-oxide anion scavenging activity by measuring Kaox/Kst ratio using CYPMPO spin trap by ESR spectroscopic method.
The nature of assay [10]: Antioxidant activity assessed as Trolox equivalents of photolysis-induced superoxide anion scavenging activity using CYPMPO spin trap by ESR spectroscopic method.
Assay [11] can be described thus: Antioxidant activity assessed as relative scavenging rate constant for photolysis-induced singlet oxygen scavenging activity by measuring Kaox/Kst ratio using 4-HO-TEMP spin trap by ESR spectroscopic method.
Assay [12] can be described thus: Antioxidant activity assessed as Trolox equivalents of photolysis-induced methyl radical scavenging activity using DMPO spin trap by ESR spectroscopic method.
Assay [13] in a line: Antioxidant activity assessed as Trolox equivalents of photolysis-induced peroxyl scavenging activity using CYPMPO spin trap by ESR spectroscopic method.
A short description of assay [14]: Antioxidant activity assessed as rate constant for singlet oxygen scavenging activity in ethanol-water (1:1 v/v) mixture using phosphorescence-based single-photon-counting method.
A short description of assay [15]: Antioxidant activity assessed as rate constant for singlet oxygen scavenging activity in methanol solution by EPR spectroscopic method.
A short description of assay [16]: Antioxidant activity assessed as rate constant for singlet oxygen scavenging activity in aqueous solution by EPR spectroscopic method.

With `Oc1cc(O)cc(/C=C/c2ccc(O)c(O)c2)c1`, the K in assay [1] came out at 7.9 ×10⁷ /M/s. Also, the Activity was 0.36 equiv in assay [2]; 2.78 equiv in [6]; 7 equiv in [7]; 1.86 equiv in assay [10]; 0.11 equiv in [12]; 7.7 equiv in assay [13]. Further, the Ratio in [3] is 5.65; in [4], 88.8; in assay [5] it was 41.2; in [8] it was 218; in assay [9], 156; in assay [11], 16600.
Take `Cc1c(C)c2c(c(C)c1O)CCC(C)(C(=O)O)O2` (centres undefined): the K in [1] was found to be 7 ×10⁸ /M/s; in assay [14], 6.22 ×10⁷ /M/s. Also, the Ratio in assay [3] worked out at 50; in [4] it was 31.9; in [5] it was 115; in assay [8] it was 28.3; in assay [9], 83.9; in assay [11], 2360.
`COc1ccc(/C=C/c2cc(O)cc(O)c2)cc1O`: the K in [1] is 3.1 ×10⁷ /M/s. Further, the Activity came to 0.1 equiv in assay [2]; 0.71 equiv in assay [6]; 3.7 equiv in assay [7]; 0.84 equiv in assay [10]; 0.04 equiv in [12]; 0.71 equiv in [13]. Further, the Ratio was 2.21 in assay [3]; 22.6 in [4]; 11.9 in assay [5]; 21.1 in assay [8]; 70.5 in assay [9]; 8780 in assay [11].
Take `Oc1cc(O)cc(/C=C/c2ccc(O)cc2O)c1`: the Activity turned out to be 0.17 equiv in [2]; 0.68 equiv in [6]; 3.4 equiv in [7]; 0.45 equiv in assay [10]; 0.08 equiv in assay [12]; 0.67 equiv in [13]. The Ratio in assay [3] was determined as 3.98; in assay [4] it was 21.8; in assay [5] it was 19; in assay [8], 18.9; in assay [9] it was 37.4; in assay [11], 7960.
With `COc1cc(/C=C/c2ccc(O)cc2)cc(OC)c1`, the Activity in assay [2] was 0.11 equiv; in assay [6], 0.47 equiv; in assay [7], 2 equiv; in [10], 0.42 equiv; in [12] it was -0 equiv; in [13], 0.88 equiv. The Ratio in [3] is -0; in assay [4], 14.9; in assay [5], 13; in assay [8], 24.8; in assay [9], 35.6; in assay [11], 4610.
`Oc1ccc(/C=C/c2cc(O)cc(O)c2)cc1`: the K in assay [15] was 2.55 ×10⁷ /M/s; in assay [16] it was 3.92 ×10⁹ /M/s. The Activity in [2] was 0.2 equiv; in assay [6], 0.5 equiv; in assay [7], 3 equiv; in [10], 0.4 equiv; in [12], -0 equiv; in [13] it was 0.69 equiv. In addition, the Ratio in assay [3] was -0; in assay [4], 15.8; in [5], 23.3; in assay [8] it was 19.6; in [9], 33.4; in assay [11], 7080.
Consider `COc1cc(/C=C/c2ccc(OC)c(OC)c2)cc(OC)c1`, for which the Activity was 0.21 equiv in [2]; 0.8 equiv in assay [6]; 0.11 equiv in assay [7]; -0 equiv in assay [10]; -0 equiv in assay [12]; 0.3 equiv in assay [13]. For the same compound, the Ratio is -0 in assay [3]; 25.6 in [4]; 24.4 in [5]; 8.52 in [8]; -0 in assay [9]; 268 in assay [11].

Values taken from ChEMBL document CHEMBL4184155, “Resveratrol analogues like piceatannol are potent antioxidants as quantitatively demonstrated through the high scavenging ability against reactive oxygen species and methyl radical” (Bioorg Med Chem Lett, 2017).
